Results reported in patent US6777193B1, “Methods for diagnostic and/or treatment of antiphospholipids antibodies-related diseases, and devices” (Escuela Nacional de Ciencias Biologicas, del Instituto …, priority 2000, dated 2004).

Key:
[1] = system: egg-yolk phosphatidylcholine:phosphatidate (2:1 molar ratio) liposomes; assay: Stabilization of liposomal membranes (liposomal cytofluorometry, SSC/FSC); conditions: for concentration effective in stabilizing lipidic bilayers: blocks lipidic particles induced by chlorpromazine at 0.2 mM and 0.6 mM; for lipidic particles formation and liposomal aggregation, simultaneous incubation with chlorpromazine: liposomes incubated simultaneously with chlorpromazine and stabilizer drug; for reaction of stabilized liposomes with H308 monoclonal antibody: liposomes incubated with chlorpromazine and stabilizer drug
Method: In relation to the stabilization of membranes with drugs that avoid the formation of lipidic particles in liposomal model membranes or in cellular membranes, which in turn avoid the subsequent union of anti-lipidic particles antibodies, the studies were carried out with liposomal or cellular antigens using the cytofluorometry method. In a favorite modality this method includes the following steps:
A) A first step of incubation, in which the antigen suspension, liposomes or cells, are incubated with a drug that stabilizes its lipidic bilayers, this drug being used at a concentration of 0.1 up to 100 mM, the obtained mixture is incubated for 0.25 to 2 h at a temperature between 35 and 40° C.
These studies were carried out with a modification in the liposomal cytofluorometry method with liposomes made from egg-yolk phosphatidylcholine:phosphatidate (2:1 molar ratio) in Tris-NaCl buffer (10 mM, 1 mM) pH 7, containing 0.1 μmol of phosphatidate, and treated with 0.2 mM chlorpromazine to induce lipidic particles formation, as antigens.
Liposomal preparations were incubated for 30 min at room temperature and were used as antigens. The reaction of these stabilized liposomes with H308 monoclonal antibody was analyzed by the liposomal cytofluorometry method as was described in Example 2A, in a FACSCalibur Flow Cytometer equipped with a single 488 nm argon laser beam (Beckton Dickinson).
Relative size and/or liposomal aggregation were analyzed in the FSC channel and the granularity or liposomal bilayers complexity in the SSC channel. Analysis of 10,000 liposomes was made in a logarithmic mode with the following detectors: FSC in E00, with a detector compensation threshold of 52 V and SSC of 401 V (Baeza et al., op. cit., 1995). The obtained data were analyzed with the Cellquest program (Beckton Dickinson).

[2] = system: egg-yolk phosphatidylcholine:phosphatidate (2:1 molar ratio) liposomes; assay: Lipidic particles reversion in liposomes; conditions: chlorpromazine 0.2 mM for 30 min before stabilizer drug
Method: (§1) Examples 7 and 7A were repeated using as antigens egg-yolk phosphatidylcholine:phosphatidate (2:1 molar ratio) liposomes, in Tris-NaCl buffer (10 mM, 1 mM) pH 7, and containing 0.1 μmol of phosphatidate, or Ag4 mouse myeloma cells. […] Stabilizer drugs were used at the concentrations used in Example 7A.

Ag4 mouse myeloma cells [3] = assay: Stabilization of cellular membranes (cytofluorometry); format: cell-based; conditions: chlorpromazine 0.2 mM plus stabilizer drug; for development of lipidic particles in Ag4 cellular membranes: 30 min
Method: The reaction of these stabilized Ag4 mouse myeloma cells with […] monoclonal antibody was analyzed by the cytofluorometry method in a FACSCalibur Flow Cytometer equipped with a single […] argon laser beam (Beckton Dickinson). Relative size and/or Ag4 mouse myeloma cells aggregation were analyzed in the FSC channel and the granularity or cellular membranes complexity in the SSC channel. Analysis of 10,000 […] mouse myeloma cells was made with the following detectors: FSC in […] in lineal mode with an amplifier gain of 2 V, with a detector compensation threshold of 52 V, and SSC of 250 V. The obtained data were analyzed with the Cellquest program (Beckton Dickinson).

Ag4 mouse myeloma cells [4] = assay: Lipidic particles reversion in cells; format: cell-based; conditions: chlorpromazine 0.2 mM for 30 min before stabilizer drug
Method: as §1

[5] = system: egg-yolk phosphatidylcholine:phosphatidate (2:1 molar ratio) liposomes; assay: Stabilization of liposomal membranes (liposomal cytofluorometry, SSC/FSC); conditions: without chlorpromazine
BALB/c female mice [6] = assay: Treatment of the pathology induced by H308 monoclonal antibody in mice; format: in vivo, mouse; conditions: for therapeutically effective quantity: of body weight, BALB/c female mice given H308
Method: H308 monoclonal antibody was administered by intraperitoneal injection of 1 μg each week during two months to BALB/c female mice, and simultaneously the glycerolphosphorylcholine hapten was administered at 2.5 mg/Kg, of body weight, doses by intravenous injection each 24 hs, for 2-months.
Spermidine was administered, as chlorhydrate, in a dose of 1 mg/Kg, of body weight, by intraperitoneal injection each 24 hs, during two months.

BALB/c female mice [7] = assay: Induction of anti-lipidic particles antibodies and pathology in immunized/treated mice; format: in vivo, mouse; conditions: for pathology developed in BALB/c female mice: after immunization or treatment as in Examples 4A-4C; for immunized BALB/c female mice that produced anti-lipidic particles antibodies: intramuscular, chlorpromazine 3 mg/Kg or procainamide 10 mg/Kg each 24 hs for 2-months
Method: Ten, 2-months age, BALB/c female mice were immunized by intrasplenic injection of 100 μg of egg-yolk phosphatidylcholine:phosphatidate liposomes (2:1 molar ratio) in Tris-NaCl buffer (10 mM, 1 mM) pH 7, containing 0.1 μmol of phosphatidate, and treated with MnCl2 5 mM to induce lipidic particles formation. Intrasplenic immunization was repeated 2-weeks later by the method described by Nilsson et al. (op. cit. 1987). Additionally, BALB/c female mice were intraperitoneally injected with the same liposomes dose 2-weeks later, then they were boosted 4-times at 2-weeks intervals.
After seven days of the last immunization female mice were bled from the orbital sinus to analyze the presence of anti-lipidic particles antibodies in the obtained sera. Using this immunization procedure, 60% of the immunized BALB/c female mice produced anti-lipidic particles antibodies.
Ten, 2-months age, BALB/c female mice were immunized by intrasplenic injection of 100 μg of egg-yolk phosphatidylcholine:phosphatidate liposomes (2:1 molar ratio) in Tris-NaCl buffer (10 mM, 1 mM) pH 7, containing 0.1 μmol of phosphatidate, and treated with the lipidic particles inducer drug procainamide at a concentration of 8 mM. Immunization was carried out as it was indicated in Example 4. After seven days of the last immunization female mice were bled from the orbital sinus to analyze the presence of anti-lipidic particles antibodies in the obtained sera. Using this immunization procedure, 70% of the immunized BALB/c female mice produced anti-lipidic particles antibodies.
Ten, 2-months age, BALB/c female mice were immunized by intramuscular injection of the lipidic particles inducer drugs chlorpromazine or procainamide, using 3 mg/Kg, of body weight, for chlorpromazine and 10 mg/Kg, of body weight, for procainamide, each 24 hs, for 2-months. Drug doses were similar to those that are administered in the medical treatment of humans; in psychotic and maniacs dysfunctions for chlorpromazine and those that were used for the treatment of cardiac arrhythmias for procainamide.
After seven days of the last intramuscular injection female mice were bled from the orbital sinus to analyze the presence of anti-lipidic particles antibodies in the obtained sera. Using this immunization procedure, 50% of the immunized BALB/c female mice produced anti-lipidic particles antibodies.
Ten, 2-months age, BALB/c female mice were immunized by intraperitoneal injection of 1 μg of anti-lipidic particles H308 monoclonal antibody, each week, for 2-months. After seven days of the last intraperitoneal injection female mice were bled from the orbital sinus to analyze the presence of anti-lipidic particles antibodies in the obtained sera. […]

H308 monoclonal antibody = assay: Inhibition of H308 monoclonal antibody by phosphorylated haptens (liposomal-ELISA); format: binding, mouse; conditions: for inhibition of H308 monoclonal antibody reaction with lipidic particles in liposomes: hapten 0.2 to 1.0 μmol
Method: Studies on inhibition of anti-lipidic particles antibodies were carried out using liposomes as antigens and the antigen-antibody reaction was analyzed by the liposomal-ELISA method, which includes the following steps:
A) A first step of addition and incubation, in which an effective quantity of an antigen suspension is added to each one of the wells of the ELISA microtiter plate. This microtiter plate is selected among those with a high lipidic antigens binding property and said microtiter plate is incubated between 25 to 30° C. for 0.25 to 2 h.
B) A second step of addition and incubation, in which an effective quantity of a blocking solution is added to each one of the wells of the ELISA microtiter plate with a high lipidic antigens binding property, and said microtiter plate being incubated at a temperature between 25 to 30° C. for 0.25 to 2 h.
C) A step of elimination of blocking solution, preferably by suction, avoiding that microtiter plate becomes dry when blocking solution is eliminated, because liposomal antigens can be damaged.
D) A step of inhibition of the antibody porter, in which the antibody porter is incubated with a chemical substance, or hapten, that will inhibit the active site that recognizes the antigen in the antibody porter.
E) A third step of addition and incubation, in which an effective quantity of the antibody porter inhibited by the hapten was quickly added, to avoid that microtiter plate becomes dry, to each one of the wells using an antibody porter dilution from 1:5 to 1:1000 into blocking solution. This microtiter plate being incubated for 0.25 to 2 h at a temperature between 25 to 30° C.
F) A first step of washing, in which the microtiter plate is washed with the blocking solution, preferably repeating 4-times and avoiding that microtiter plate becomes dry when eliminating the blocking solution.
G) A fourth step of addition and incubation, in which an effective quantity of a second antibody is added to each one of the wells of microtiter plate. This plate is incubated in the darkness for 0.25 to 2 h at a temperature between 25 to 30° C. Second antibody is selected preferably among antibodies from a different specie to that of the antibody porter and they can be anti-Fc of human IgG, IgA and IgM or of the animal in study, or antibodies anti-Fc of IgM or of IgG depending on the nature of the monoclonal antibody when this is the antibody porter. Second antibody is used in a final dilution into blocking solution between […] and 1:3500 and it is conjugated to an enzyme preferably to peroxidase.
H) A second step of washing, in which the microtiter plate is washed with the blocking solution, preferably repeating 4-times and avoiding that microtiter plate becomes dry when eliminating the blocking solution.
I) A fifth step of addition and incubation, in which an effective quantity of the peroxidase sustrates is added to each one of the wells and this microtiter plate is incubated for 0.1 to 0.5 h at a temperature between .35 and 40° C., stopping the peroxidase reaction by adding an effective quantity of sulfuric acid.
J) A step of analysis, in which microtiter plate is analyzed using a reading device for ELISA plates, preferably at 492 nm.
In a specific embodiment, the hapten solution is obtained dissolving hapten in a buffer solution at pH between 7.0 and 7.4, in a relationship from 0.1 to 10 mmoles of hapten per liter of buffer solution.
Costar microtiter plates, with 96 flat-bottom wells with a high lipidic antigens binding property (Costar Co. Cambrige, USA) were coated by the addition to each one of the wells of 100 μl of liposomes made from egg-yolk phosphatidylcholine:phosphatidate (2:1 molar ratio) in Tris-NaCl buffer (10 mM, 1 mM) pH 7, containing 0.1 μmol of phosphatidate, and treated with 5 mM CaCl2 to induce lipidic particles formation. Microtiter plates were incubated at room temperature for 1 h and they were blocked for 1 h at room temperature in a similar way as was described in Example 1. […]

**Q.** Which “concentration effective in stabilizing lipidic bilayers” value [1] does the source give for CCN(CC)CCCC(C)Nc1ccnc2cc(Cl)ccc12 (stereo not drawn) [chloroquine] here?
**A.** 0.1 µM

**Q.** And the “lipidic particles formation and liposomal aggregation, simultaneous incubation with chlorpromazine” value [1]?
**A.** there were not lipidic particles formation neither liposomal aggregation

**Q.** What about the “reaction of stabilized liposomes with H308 monoclonal antibody” value [1] of the same compound?
**A.** do not react with H308 monoclonal antibody

**Q.** And the “reversion of lipidic particles and liposomal aggregation caused by chlorpromazine” value [2]?
**A.** reverted

**Q.** What about the “reaction of stabilized Ag4 cells with H308 monoclonal antibody” value (Ag4 mouse myeloma cells [3]) of the same compound?
**A.** do not react with the H308 monoclonal antibody

**Q.** What about the “development of lipidic particles in Ag4 cellular membranes” value (Ag4 mouse myeloma cells [3]) of the same compound?
**A.** do not develop lipidic particles with chlorpromazine

**Q.** What about the “reversion of lipidic particles and cellular aggregation caused by chlorpromazine” value (Ag4 mouse myeloma cells [4]) of the same compound?
**A.** reverted

**Q.** And the “change in liposomal aggregation and liposomal bilayers complexity, stabilizer drug alone” value [5]?
**A.** do not produce any change

**Q.** And the therapeutically effective quantity (BALB/c female mice [6])?
**A.** 2.5 mg/kg

**Q.** CN(C)CCCN1c2ccccc2Sc2ccc(Cl)cc21 [chlorpromazine] was tested. Which “increase in SSC and FSC values (lipidic particles and liposomal aggregation)” value ([1]; 0.2 mM) did it give?
**A.** 100 fold

**Q.** What about the SSC values ([1]; graph B, FIG. 16, presence of lipidic particles) of the same compound?
**A.** higher than 1000 units

**Q.** And the “pathology developed in BALB/c female mice” value (BALB/c female mice [7])?
**A.** development of a pathology similar to the human antiphospholipid syndrome secondary to systemic lupus erythematosus

**Q.** What about the “immunized BALB/c female mice that produced anti-lipidic particles antibodies” value (BALB/c female mice [7]) of the same compound?
**A.** 50%

**Q.** With N[C@@H](COP(=O)(O)OCC(O)CO)C(=O)O (stereo partly drawn) [glycerolphosphorylserine] as the compound, how does the “inhibition of H308 monoclonal antibody reaction with lipidic particles in liposomes” value (shortened to “inhibition … in liposomes”) (H308 monoclonal antibody) read?
**A.** do not cause any inhibition

**Q.** Which “absorbance at 492 nm of H308 immunoreaction” value (H308 monoclonal antibody; 0.6 μmoles of hapten) does the source give for C[N+](C)(C)CCOP(=O)(O)O [phosphorylcholine] here?
**A.** 0.06

**Q.** What about the “inhibition in immunoreaction of H308 monoclonal antibody” value (H308 monoclonal antibody; 0.6 μmoles of hapten, with regard to reaction in absence of hapten) of the same compound?
**A.** 82%

**Q.** With NCCOP(=O)(O)O [phosphorylethanolamine] as the compound, how does the “inhibition … in liposomes” value (H308 monoclonal antibody) read?
**A.** do not cause any inhibition

**Q.** How did the “inhibition … in liposomes” value (H308 monoclonal antibody) turn out when NC(COP(=O)(O)O)C(=O)O (stereo not drawn) [phosphorylserine] was run?
**A.** do not cause any inhibition

**Q.** How did the “pathology developed in BALB/c female mice” value (BALB/c female mice [7]) turn out when CCN(CC)CCNC(=O)c1ccc(N)cc1 [procainamide] was run?
**A.** development of a pathology similar to the human antiphospholipid syndrome secondary to systemic lupus erythematosus

**Q.** What about the “immunized BALB/c female mice that produced anti-lipidic particles antibodies” value (BALB/c female mice [7]) of the same compound?
**A.** 50%

**Q.** Which results are given for NCCCCNCCCN [spermidine]?
**A.** concentration effective in stabilizing lipidic bilayers [1]: 5 µM; lipidic particles formation and liposomal aggregation, simultaneous incubation with chlorpromazine [1]: there were not lipidic particles formation neither liposomal aggregation; reaction of stabilized liposomes with H308 monoclonal antibody [1]: do not react with H308 monoclonal antibody; reversion of lipidic particles and liposomal aggregation caused by chlorpromazine [2]: reverted; reaction of stabilized Ag4 cells with H308 monoclonal antibody (Ag4 mouse myeloma cells [3]): do not react with the H308 monoclonal antibody; development of lipidic particles in Ag4 cellular membranes (Ag4 mouse myeloma cells [3]): do not develop lipidic particles with chlorpromazine; reversion of lipidic particles and cellular aggregation caused by chlorpromazine (Ag4 mouse myeloma cells [4]): reverted; change in liposomal aggregation and liposomal bilayers complexity, stabilizer drug alone [5]: do not produce any change; development of mice pathology induced by H308 monoclonal antibody (BALB/c female mice [6]; as chlorhydrate, 1 mg/Kg intraperitoneal each 24 hs, two months): results similar to those described with chloroquine; therapeutically effective quantity (BALB/c female mice [6]): 1 mg/kg
